Laboratory results taken from patent US4623662A, “Antiatherosclerotic ureas and thioureas” (American Cyanamid Company, priority 1985, dated 1986).
Like-named read-outs stand apart in the source and are kept apart here.

Tested on: cholesterol absorption
Test: Inhibition of cholesterol absorption in rats fed 1% cholesterol:0.5% cholic acid diet
Type: in vivo, male Sprague-Dawley rats
Conditions: rat, 2 weeks; for response vs control in vivo at 0.03 % / response vs control in vivo at 0.001 % / response vs control in vivo at 0.003 % / response vs control in vivo at 0.01 %: po, 336 h; for response vs control in vivo at 0.03 %: dose .03% of the diet; for response vs control in vivo at 0.001 %: dose .001% of the diet; for response vs control in vivo at 0.01 %: dose .01% of the diet
Description: Inhibition of cholesterol absorption was determined by feeding male Sprague-Dawley rats, weighing 150-170 g, a 1% cholesterol:0.5% cholic acid diet for 2 weeks. The diet also contained compounds being tested at a dose of 0.001, 0.003, 0.01, or 0.03% of the diet. Control rats were fed the same diet without any compound. At the end of the test, the rats were sacrificed by decapitation. Blood was collected, centrifuged at […] for 10 minutes at 4° C.; and the serum was then analyzed for cholesterol and triglycerides enzymatically by the method of Trinder, P., Analyst, 77, 321 (1952) on a Centrifichem 400 analyzer. Livers were removed, a 0.4 g sample was taken from the center of the large lobe, and the sample was subjected to saponification using 25% saturated potassium hydroxide in ethanol. The resulting neutral sterols were extracted with petroleum ether and the extract analyzed for cholesterol. The effectiveness of the compound in inhibiting cholesterol absorption was measured by the lowering of either serum cholesterol or liver cholesterol relative the values for control rats.
Compounds which produced statistically significant inhibition of cholesterol absorption are considered to be active. Liver sterol (LS) and serum sterol (SS) values are expressed as a percentage of control values.

[1] = read-out: LS (liver sterol), percentage of control values
[2] = read-out: SS (serum sterol), percentage of control values
[3] = dose .003% of the diet, read-out: LS (liver sterol), percentage of control values
[4] = dose .003% of the diet, read-out: SS (serum sterol), percentage of control values

Molecule	response vs control in vivo at 0.001 % [1] [%]	response vs control in vivo at 0.001 % [2] [%]	response vs control in vivo at 0.003 % [3] [%]	response vs control in vivo at 0.003 % [4] [%]	also measured
1-(n-Heptyl)-1-[4-(1,5-dimethylhexyl)benzyl]-3-(2,4,6-trifluoromethylphenyl)urea					LS (liver sterol), percentage of control values (dose .003% of the diet): 65 percentage of control values; SS (serum sterol), percentage of control values (dose .003% of the diet): 57 percentage of control values
CC(C)(C)CCN(Cc1ccc(Cl)cc1)C(=O)Nc1ccc(C(F)(F)F)cc1 [1-(3,3-Dimethylbutyl)-1-(4-chlorobenzyl)-3-(4-trifluoromethylphenyl)urea]					response vs control in vivo at 0.03 % [1]: 70%; response vs control in vivo at 0.03 % [2]: 85%
CCCCc1ccc(CN(CCC(C)(C)C)C(=O)Nc2ccc(C(F)(F)F)cc2)cc1 [1-(3,3-Dimethylbutyl)-1-[4-(n-butyl)benzyl]-3-(4-trifluoromethylphenyl)urea]					response vs control in vivo at 0.03 % [1]: 86%; response vs control in vivo at 0.03 % [2]: 100%
CC(C)CCCCN(Cc1ccc(CCC(C)C)cc1)C(=O)Nc1c(F)cc(F)cc1F [1-(Isoheptyl)-1-[4-(isopentyl)benzyl]-3-(2,4,6-trifluorophenyl)urea]	45	33			
CC(C)CCCCN(Cc1ccc(CCC(C)C)cc1)C(=O)Nc1ccc(F)cc1F [1-(Isoheptyl)-1-[4-(isopentyl)benzyl]-3-(2,4-difluorophenyl)urea]			45	24	
Cc1cc(Cl)cc(C)c1NC(=O)N(CCCCC(C)C)Cc1ccc(CCC(C)C)cc1 [1-(Isoheptyl)-1-[4-(isopentyl)benzyl]-3-(4-chloro-2,6-dimethylphenyl)urea]	40	40			
CCCCCCOc1ccc(CN(CCCC)C(=O)Nc2c(C)cc(C)cc2C)cc1 [1-(n-Butyl)-1-(4-hexyloxybenzyl)-3-(2,4-trimethylphenyl)urea]					response vs control in vivo at 0.03 % [1]: 15%; response vs control in vivo at 0.03 % [2]: 54%
CCCCCCCN(Cc1ccc(C(C)CCCC(C)C)cc1)C(=O)Nc1ccc(F)cc1F (stereo not drawn) [1-(n-Heptyl)-1-[4-(1,5-dimethylhexyl)benzyl]-3-(2,4-difluorophenyl)urea]	88	83			
CCCCCCCN(Cc1ccc(C(C)CCCC(C)C)cc1)C(=O)Nc1c(C)cc(Cl)cc1C (stereo not drawn) [1-(n-Heptyl)-1-[4-(1,5-dimethylhexyl)benzyl]-3-(4-chloro-2,6-dimethylphenyl)urea]	100	94			
CCCCCCCN(Cc1ccc(CC(C)(C)C)cc1)C(=O)Nc1c(F)cc(F)cc1F [1-(n-Heptyl)-1-[4-(2,2-dimethylpropyl)phenylmethyl]-3-(2,4,6-trifluorophenyl)urea]			55	38	
CCCCCCCN(Cc1ccc(CC(C)(C)C)cc1)C(=O)Nc1ccc(F)cc1F [1-(n-Heptyl)-1-[4-(2,2-dimethylpropyl)phenylmethyl]-3-(2,4-difluorophenyl)urea]					response vs control in vivo at 0.01 % [1]: 51%; response vs control in vivo at 0.01 % [2]: 22%
CCCCCCCN(Cc1ccc(CC(C)(C)C)cc1)C(=O)Nc1c(C)cc(Cl)cc1C [1-(n-Heptyl)-1-[4-(2,2-dimethylpropyl)phenylmethyl]-3-(4-chloro-2,6-dimethylphenyl)urea]			54	41	
CCCCCCCN(Cc1ccc(CC(C)C(C)CC)cc1)C(=O)Nc1c(F)cc(F)cc1F (stereo not drawn) [1-(n-Heptyl)-1-[4-(2,3-dimethylpentyl)benzyl]-3-(2,4,6-trifluorophenyl)urea]					response vs control in vivo at 0.01 % [1]: 31%; response vs control in vivo at 0.01 % [2]: 33%
CCCCCCCN(Cc1ccc(CC(C)C(C)CC)cc1)C(=O)Nc1ccc(F)cc1F (stereo not drawn) [1-(n-Heptyl)-1-[4-(2,3-dimethylpentyl)benzyl]-3-(2,4-difluorophenyl)urea]					response vs control in vivo at 0.01 % [1]: 63%; response vs control in vivo at 0.01 % [2]: 48%
CCCCCCCN(Cc1ccc(CCOC(C)=O)cc1)C(=O)Nc1ccc(F)cc1F [1-(n-Heptyl)-1-[4-(2-acetoxyethyl)benzyl]-3-(2,4-difluorophenyl)urea]			60	55	
CCCCCCCN(Cc1ccc(CC(CC)CC)cc1)C(=O)Nc1c(F)cc(F)cc1F [1-(n-Heptyl)-1-[4-(2-ethylbutyl)benzyl)-3-(2,4,6-trifluorophenyl)urea]	75	120			
CCCCCCCN(Cc1ccc(CC(CC)CC)cc1)C(=O)Nc1ccc(F)cc1F [1-(n-Heptyl)-1-[4-(2-ethylbutyl)benzyl]-3-(2,4-difluorophenyl)urea]			98	66	
CCCCCCCN(Cc1ccc(CC(CC)CC)cc1)C(=O)Nc1c(C)cc(Cl)cc1C [1-(n-Heptyl)-1-[4-(2-ethylbutyl)benzyl]-3-(4-chloro-2,6-dimethylphenyl)urea]	94	62			
CCCCCCCN(Cc1ccc(CC(CC)CCCC)cc1)C(=O)Nc1c(F)cc(F)cc1F (stereo not drawn) [1-(n-Heptyl)-1-[4-(2-ethylhexyl)benzyl]-3-(2,4,6-trifluorophenyl)urea]	87	82			
CCCCCCCN(Cc1ccc(CC(CC)CCCC)cc1)C(=O)Nc1ccc(F)cc1F (stereo not drawn) [1-(n-Heptyl)-1-[4-(2-ethylhexyl)benzyl]-3-(2,4-difluorophenyl)urea]			56	63	
CCCCCCCN(Cc1ccc(CC(CC)CCCC)cc1)C(=O)Nc1c(C)cc(Cl)cc1C (stereo not drawn) [1-(n-Heptyl)-1-[4-(2-ethylhexyl)benzyl]-3-(4-chloro-2,6-dimethylphenyl)urea]	87	83			
CCCCCCCN(Cc1ccc(CCO)cc1)C(=O)Nc1ccc(F)cc1F [1-(n-Heptyl)-1-[4-(2-hydroxyethyl)benzyl]-3-(2,4-difluorophenyl)urea]			59	52	
CCCCCCCN(Cc1ccc(CC[S+]([O-])C(C)C)cc1)C(=O)Nc1c(C)cc(Cl)cc1C (stereo not drawn) [1-(n-Heptyl)-1-[4-(2-isopropylsulfinylethyl)benzyl]-3-(4-chloro-2,6-dimethylphenyl)urea]			54	45	
CCCCCCCN(Cc1ccc(CCS(=O)(=O)C(C)C)cc1)C(=O)Nc1ccc(F)cc1F [1-(n-Heptyl)-1-[4-(2-isopropylsulfonylethyl)benzyl]-3-(2,4-difluorophenyl)urea]			68	94	
CCCCCCCN(Cc1ccc(CCS(=O)(=O)C(C)C)cc1)C(=O)Nc1c(C)cc(Cl)cc1C [1-(n-Heptyl)-1-[4-(2-isopropylsulfonylethyl)benzyl]-3-(4-chloro-2,6-dimethylphenyl)urea]			54	57	
CCCCCCCN(Cc1ccc(CCSC(C)C)cc1)C(=O)Nc1c(C)cc(Cl)cc1C [1-(n-Heptyl)-1-[4-(2-isopropylthioethyl)benzyl]-3-(4-chloro-2,6-dimethylphenyl)urea]			51	49	
CCCCCCCN(Cc1ccc(CC(C)CC)cc1)C(=O)Nc1c(F)cc(F)cc1F (stereo not drawn) [1-(n-Heptyl)-1-[4-(2-methylbutyl)benzyl]-3-(2,4,6-trifluorophenyl)urea]	64	76			
